According to ChEMBL document CHEMBL3046438, “Synthesis and Cytotoxic Evaluation of 1,2,3-Trisubstituted 2-(2-Oxoalkyl)-2,3-dihydrobenzimidazoles” (Med Chem Res, 2005):

What was measured:
[1] = test system: RD; experiment: Cytotoxicity against Homo sapiens (human) RD cells assessed as cell viability at 10^-4 M after 72 hr by trypan blue exclusion assay relative to control; assay type: functional; details: read-out: Activity
[2] = test system: A2058; experiment: Cytotoxicity against Homo sapiens (human) A2058 cells assessed as cell viability at 10^-4 M after 48 hr by trypan blue exclusion assay relative to control; assay type: functional; details: A2058, 48 h, read-out: Activity
[3] = Cytotoxicity against Homo sapiens (human) FL cells assessed as cell viability at 10^-4 M after 24 hr by trypan blue exclusion assay relative to control; assay type: cell-based; details: read-out: Activity
[4] = test system: A2058; experiment: Cytotoxicity against Homo sapiens (human) A2058 cells assessed as cell viability at 10^-4 M after 24 hr by trypan blue exclusion assay relative to control; assay type: functional; details: A2058, 24 h, read-out: Activity
[5] = test system: A2058; experiment: Cytotoxicity against Homo sapiens (human) A2058 cells assessed as cell viability at 10^-4 M after 96 hr by trypan blue exclusion assay relative to control; assay type: functional; details: A2058, 96 h, read-out: Activity
[6] = Cytotoxicity against Homo sapiens (human) FL cells assessed as cell viability at 10^-4 M after 96 hr by trypan blue exclusion assay relative to control; assay type: cell-based; details: read-out: Activity
[7] = test system: RD; experiment: Cytotoxicity against Homo sapiens (human) RD cells assessed as cell viability at 10^-4 M after 48 hr by trypan blue exclusion assay relative to control; assay type: functional; details: read-out: Activity
[8] = test system: RD; experiment: Cytotoxicity against Homo sapiens (human) RD cells assessed as cell viability at 10^-4 M after 96 hr by trypan blue exclusion assay relative to control; assay type: functional; details: read-out: Activity
[9] = Cytotoxicity against Homo sapiens (human) FL cells assessed as cell viability at 10^-4 M after 48 hr by trypan blue exclusion assay relative to control; assay type: cell-based; details: read-out: Activity
[10] = test system: RD; experiment: Cytotoxicity against Homo sapiens (human) RD cells assessed as cell viability at 10^-4 M after 24 hr by trypan blue exclusion assay relative to control; assay type: functional; details: read-out: Activity
[11] = Cytotoxicity against Homo sapiens (human) FL cells assessed as cell viability at 10^-4 M after 72 hr by trypan blue exclusion assay relative to control; assay type: cell-based; details: read-out: Activity
[12] = test system: A2058; experiment: Cytotoxicity against Homo sapiens (human) A2058 cells assessed as cell viability at 10^-4 M after 72 hr by trypan blue exclusion assay relative to control; assay type: functional; details: A2058, 72 h, read-out: Activity

Compound | viability at 100 µM [1] [%] | viability at 100 µM [2] [%] | viability at 24 h, 100 µM [3] [%] | viability at 100 µM [4] [%] | viability at 100 µM [5] [%] | viability at 96 h, 100 µM [6] [%] | viability at 100 µM [7] [%] | viability at 100 µM [8] [%] | viability at 48 h, 100 µM [9] [%] | viability at 100 µM [10] [%] | viability at 72 h, 100 µM [11] [%] | viability at 100 µM [12] [%]
CCOC(=O)N1c2ccccc2N(C(=O)OCC)C1CC(=O)/C=C/c1ccccc1 | 52.9 | 12.1 | 111 | 14.7 | 7.14 | 81.1 | 59.1 | 39.4 | 77.9 | 45.5 | 83.6 | 8.14
CCOC(=O)N1c2cc(C)c(C)cc2N(C(=O)OCC)C1CC(=O)/C=C/c1ccccc1 | 81.4 | 86.4 | 94.6 | 82.3 | 75.5 | 74.2 | 70.5 | 79.8 | 67.5 | 86.4 | 60 | 80.2
CCOC(=O)N1c2ccccc2N(C(=O)OCC)C1CC(C)=O | 0 | 0 | 0 | 0 | 0 | 0 | 0 | 0 | 0 | 0 | 0 | 0
CCOC(=O)N1c2cc(C)c(C)cc2N(C(=O)OCC)C1CC(C)=O | 24.3 | 57.6 | 111 | 82.3 | 70.4 | 39.4 | 40.9 | 17.9 | 31.2 | 31.2 | 15.4 | 69.8
CCOC(=O)N1c2ccccc2N(C(=O)OCC)C1CC(=O)c1ccc(O)cc1 | 5.71 | 12.1 | 29.7 | 35.3 | 6.12 | 4.55 | 13.6 | 3.57 | 11.7 | 27.3 | 7.27 | 9.3
CCOC(=O)N1c2cc(C)c(C)cc2N(C(=O)OCC)C1CC(=O)c1ccc(OC)cc1 | 58.6 | 54.5 | 75.7 | 55.9 | 33.7 | 65.9 | 43.2 | 57.1 | 49.4 | 31.2 | 63.6 | 38.4
CCOC(=O)N1c2cc(C)c(C)cc2N(C(=O)OCC)C1CC(=O)c1ccccc1 | 47.1 | 83.3 | 67.6 | 97.1 | 31.6 | 62.1 | 52.3 | 32.1 | 46.8 | 45.5 | 60 | 50
CCOC(=O)N1c2ccccc2N(C(=O)OCC)C1CC(=O)c1ccccc1 | 92.9 | 106 | 75.7 | 94.1 | 65.3 | 77.3 | 93.2 | 88.1 | 83.1 | 86.4 | 74.5 | 53.5
CCOC(=O)N1c2ccccc2N(C(=O)OCC)C1CC(=O)Cc1ccccc1 | 14.3 | 21.2 | 27 | 41.2 | 6.12 | 3.03 | 31.8 | 11.9 | 10.4 | 63.6 | 5.45 | 11.6
